Assays:
[1] = test system: Endometrial cancer tumor tissue, HER2-positive (+1); assay: Tumor growth inhibition test: EC PDX model; assay type: in vivo, NODSCID mice; details: 10 mg/kg i.v.; Day 12, table head Day 0-60
Method: Endometrial cancer tumor tissue obtained from National Taiwan University was confirmed to be HER2-positive (+1). Tumor (2-3 mm diameter) was subcutaneous implanted to NODSCID mice to test the drug efficacy of ADCs in vivo. When the average tumor size was about 100 mm^3, mice were divided into groups and ADCs were intravenously injected (10 mL/kg B.W. injection volume).

[2] = test system: HER2 high-expressing breast cancer cell lines BT-474; assay: Potency test, CCK-8 cell viability, BT-474; assay type: cell-based; details: for IC50: HER2 expression 3+, 72-120 hours; for In vitro selectivity MDA-MB-468/BT-474: ratio of IC50
Method: (§1) Cells were seeded in Corning CellBIND 96-well plates at densities of 6×10^3 cells/well. After incubation overnight at 37° C., 5% CO2 incubator, different concentrations of ADCs were added to the cells in serial dilutions. The cells were then incubated for 72-120 hours at 37° C., 5% CO2 incubator. After 72-120 hours, the old medium was removed and the cells were rinsed once and treated with 10-fold diluted CCK-8 reagent at 37° C. for 4 hours. The 96-well plates were put in the ELISA reader to measure the absorbance wavelength at 450 nm. Cell viability was calculated by the following equation: Cell Viability (%)=(Intensity of sample/Intensity of control)×100%. IC50 values of the ADC samples were calculated using SigmaPlot software.

[3] = test system: HER2 moderate-expressing breast cancer cell lines JIMT-1 with anti-Herceptin drug resistance; assay: Potency test, CCK-8 cell viability, JIMT-1; assay type: cell-based; details: for IC50: HER2 expression 2+ resistant, 72-120 hours; for In vitro selectivity MDA-MB-468/JIMT-1: ratio of IC50
Method: as §1

[4] = test system: HER2-negative cell lines MDA-MB-468; assay: Potency test, CCK-8 cell viability, MDA-MB-468; assay type: cell-based; details: HER2 expression negative, 72-120 hours
Method: as §1

[5] = Storage test in DMSO (LC-MS); assay type: physicochemical; details: 20 mM in DMSO, 0, 21, 92 and 99 days at −20° C.
Method: 20 mM Linker-drug 7 was stored in DMSO for 0, 21, 92 and 99 days at −20° C. LC-MS was used to analyze the purity of Linker-drug 7. The condition of LC-MS analysis was as follows.
Column: 4.6 mm×20 mm XBridge C18 column (Waters, Milford USA)
Linear gradient: 5 to 70% solvent B (100% acetonitrile with 0.1% formic acid)
Solvent A (0.1% formic acid in ddH2O)
Solvent B (100% acetonitrile with 0.1% formic acid)

Compound	TGI (%) ± SEM [1] [%]	IC50 ([2]; Table 3) [µM]	IC50 ([2]; Table 4) [µM]	In vitro selectivity MDA-MB-468/BT-474 ([2]; Table 3)	In vitro selectivity MDA-MB-468/BT-474 ([2]; Table 4)	IC50 ([3]; Table 3) [µM]	IC50 ([3]; Table 4) [µM]	In vitro selectivity MDA-MB-468/JIMT-1 ([3]; Table 3)	In vitro selectivity MDA-MB-468/JIMT-1 ([3]; Table 4)	IC50 ([4]; Table 3) [µM]	IC50 ([4]; Table 4) [µM]	storage stability (purity by LC-MS) [5]
ado-trastuzumab emtansine [Kadcyla]	26.5±10.1	0.00227	0.00031	5.5	26.16	0.0155	0.027	1	0.30	0.0152	0.00811	
CC[C@H](C)[C@@H]([C@@H](CC(=O)C1CCCN1[C@H](OC)[C@@H](C)C(=O)N[C@H](Cc1ccccc1)C(=O)NCCc1ccc(NC(=O)[C@@H](CCCNC(N)=O)NC(=O)[C@@H](NC(=O)COCCOCCOCCOCCNC(=O)c2ccc(NC(=O)CCl)c(NC(=O)CCl)c2)C(C)C)cc1)OC)N(C)C(=O)[C@H](NC(=O)[C@H](C(C)C)N(C)C)C(C)C (stereo partly drawn) [Linker-drug 7]												stable when dissolved in DMSO

Source: US10864279B2, “Linker-drug and antibody-drug conjugate (ADC) employing the same” (priority 2016, dated 2020)
